This note sets out measurements from patent publication US7205382B2, “Peptides, the production and use thereof for binding immunoglobulins” (Fresenius Medical Care Affina GmbH, priority 2000, dated 2007).

Bridge positions count the residues as written; N and C are the ends. Square brackets hold non-standard residues; d marks the D form. Ends that are not written are not given here. cellulose = not defined here; βAla = NCCC(=O)O

Format in all cases: binding
Common to all, as to set-up: key: No binding of immunoglobulin for the defined peptide variant, detection negative: 0; Binding of immunoglobulin for the defined peptide variant, detection positive: +

In one experiment the test system is human IgG-Fc. As to the kind of experiment: Cellulose-immobilized 13-mer peptide variants incubated with human IgG-Fc, anti-human IgG-AP detection. Particulars: IgG-Fc 1 μg/ml in blocking buffer, 3 h room temperature. Put shortly: (§1)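 SPOT-type 13-mer peptides on cellulose with a (βA)(βA) spacer, blocked in 5% saccharose/4% BSA in T-TBS pH 8.0. Incubated 3 h at RT with human IgG-Fc (1 μg/ml) or human serum/plasma (1:10,000), or with blocking buffer alone as the albumin specificity control. Bound IgG detected with AP-anti-human IgG (1.2 μg/ml) and NBT/BCIP colorimetric development at pH 9.5.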

Another experiment concerns serum albumin. As to the kind of experiment: Cellulose-immobilized 13-mer peptide variants incubated with serum albumin (negative control), anti-human IgG-AP detection. Conditions: blocking buffer without addition, 3 h room temperature. The method in brief:
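Spot membrane, (βA)(βA) spacer; T-TBS pH 8.0 wash, block 5% saccharose/4% BSA. 3 h RT with IgG-Fc 1 μg/ml, serum 1:10,000, or block buffer only (specificity control). 3× wash, AP-anti-human IgG 1.2 μg/ml, NBT/BCIP in pH 9.5 buffer.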

Experiment [1] relates to immunoglobulins in human plasma. As to the kind of experiment: Cellulose-immobilized 13-mer peptide variants incubated with human plasma, anti-human IgG-AP detection. Particulars: human plasma as sample, diluted 1:10,000 in blocking buffer, 3 h room temperature. The method in brief: as §1

Regarding “05Q: cellulose-bound 13-mer variant DCAWQLGELVWCT-(βA)(βA) (disulfide 2-12 (inferred); not fully specified (N-terminus, C-terminus); printed as DCAWQLGELVWCT-(βA)(βA); also: cellulose-bound)”, the “Result for incubation with human IgG-Fc (immunoglobulin binding detection)” value (shortened to “Result for incubation with human IgG-Fc”) with human IgG-Fc was 0. The “Result for incubation with serum albumin (immunoglobulin binding detection)” value (shortened to “Result for incubation with serum albumin”) in the experiment on serum albumin was determined as 0. For the same substance, in experiment [1], the “Result for incubation with human plasma (immunoglobulin binding detection)” value (“Result for incubation with human plasma” below) is recorded as 0.
Consider “05A: cellulose-bound 13-mer variant DCAWALGELVWCT-(βA)(βA) (disulfide 2-12 (inferred); not fully specified (N-terminus, C-terminus); printed as DCAWALGELVWCT-(βA)(βA); also: cellulose-bound)”, for which, in the experiment with human IgG-Fc, the “Result for incubation with human IgG-Fc” value was 0. Also, the “Result for incubation with serum albumin” value with serum albumin was found to be 0. Also, in experiment [1], the “Result for incubation with human plasma” value amounted to 0.
Take “07R: cellulose-bound 13-mer variant DCAWHLRELVWCT-(βA)(βA) (DCAWHLRELVWCT-{βAla-βAla-cellulose}; disulfide 2-12 (inferred); not fully specified (N-terminus); printed as DCAWHLRELVWCT-(βA)(βA); reading uncertain)”: the “Result for incubation with human IgG-Fc” value in the experiment on human IgG-Fc turned out to be 0. Moreover, in the experiment with serum albumin, the “Result for incubation with serum albumin” value is 0. Moreover, the “Result for incubation with human plasma” value in experiment [1] is given as 0.
In the case of “05I: cellulose-bound 13-mer variant DCAWILGELVWCT-(βA)(βA) (disulfide 2-12 (inferred); not fully specified (N-terminus, C-terminus); printed as DCAWILGELVWCT-(βA)(βA); also: cellulose-bound)”, the “Result for incubation with human IgG-Fc” value with human IgG-Fc came out at 0. Besides, the “Result for incubation with serum albumin” value in the experiment with serum albumin worked out at 0. The “Result for incubation with human plasma” value in experiment [1] is on record as 0.
As for “04T: cellulose-bound 13-mer variant DCATHLGELVWCT-(βA)(βA) (disulfide 2-12 (inferred); not fully specified (N-terminus, C-terminus); printed as DCATHLGELVWCT-(βA)(βA); also: cellulose-bound)”, the “Result for incubation with human IgG-Fc” value in the experiment on human IgG-Fc is “+”. Also, the “Result for incubation with serum albumin” value in the experiment with serum albumin was 0. Moreover, the “Result for incubation with human plasma” value in experiment [1] is “+”.
As for “01R: cellulose-bound 13-mer variant RCAWHLGELVWCT-(βA)(βA) (RCAWHLGELVWCT-{βAla-βAla-cellulose}; disulfide 2-12 (inferred); reading uncertain; also: printed as RCAWHLGELVWCT-(βA)(βA))”, the “Result for incubation with human IgG-Fc” value in the experiment on human IgG-Fc is “+”. The “Result for incubation with serum albumin” value in the experiment with serum albumin was found to be 0. The “Result for incubation with human plasma” value in experiment [1] came to 0.
For “08A: cellulose-bound 13-mer variant DCAWHLGALVWCT-(βA)(βA) (DCAWHLGALVWCT-{βAla-βAla-cellulose}; disulfide 2-12 (inferred); not fully specified (N-terminus); printed as DCAWHLGALVWCT-(βA)(βA); reading uncertain)”, in the experiment with human IgG-Fc, the “Result for incubation with human IgG-Fc” value is “+”. The “Result for incubation with serum albumin” value with serum albumin was 0. Further, in experiment [1], the “Result for incubation with human plasma” value is given as 0.
“05C: cellulose-bound 13-mer variant DCAWCLGELVWCT-(βA)(βA) (not fully specified (N-terminus, C-terminus, bridges); printed as DCAWCLGELVWCT-(βA)(βA); cysteine pairing not given here; also: cellulose-bound)”: the “Result for incubation with human IgG-Fc” value in the experiment with human IgG-Fc was 0. The “Result for incubation with serum albumin” value in the experiment on serum albumin is on record as 0. Further, in experiment [1], the “Result for incubation with human plasma” value came to 0.
In the case of “02A: cellulose-bound 13-mer variant DAAWHLGELVWCT-(βA)(βA) (DAAWHLGELVWCT[βAla][βAla]; not fully specified; printed as DAAWHLGELVWCT-(βA)(βA); also: cellulose-bound)”, in the experiment with human IgG-Fc, the “Result for incubation with human IgG-Fc” value is 0. The “Result for incubation with serum albumin” value in the experiment with serum albumin is 0. In addition, the “Result for incubation with human plasma” value in experiment [1] is given as 0.
Take “02G: cellulose-bound 13-mer variant DGAWHLGELVWCT-(βA)(βA) (DGAWHLGELVWCT[βAla][βAla]; not fully specified; printed as DGAWHLGELVWCT-(βA)(βA); also: cellulose-bound)”: the “Result for incubation with human IgG-Fc” value in the experiment with human IgG-Fc came out at 0. Further, the “Result for incubation with serum albumin” value with serum albumin came to 0. For the same substance, in experiment [1], the “Result for incubation with human plasma” value was determined as 0.
In the case of “10F: cellulose-bound 13-mer variant DCAWHLGELFWCT-(βA)(βA) (DCAWHLGELFWCT-{βAla-βAla-cellulose}; disulfide 2-12 (inferred); reading uncertain; also: printed as DCAWHLGELFWCT-(βA)(βA))”, in the experiment with human IgG-Fc, the “Result for incubation with human IgG-Fc” value is 0. Further, the “Result for incubation with serum albumin” value in the experiment with serum albumin worked out at 0. Also, the “Result for incubation with human plasma” value in experiment [1] stood at 0.
Consider “02K: cellulose-bound 13-mer variant DKAWHLGELVWCT-(βA)(βA) (DKAWHLGELVWCT[βAla][βAla]; not fully specified; printed as DKAWHLGELVWCT-(βA)(βA); also: cellulose-bound)”, for which, in the experiment on human IgG-Fc, the “Result for incubation with human IgG-Fc” value is reported as 0. In the experiment with serum albumin, the “Result for incubation with serum albumin” value is listed as 0. Moreover, the “Result for incubation with human plasma” value in experiment [1] is on record as 0.
As to “10I: cellulose-bound 13-mer variant DCAWHLGELIWCT-(βA)(βA) (DCAWHLGELIWCT-{βAla-βAla-cellulose}; disulfide 2-12 (inferred); reading uncertain; also: printed as DCAWHLGELIWCT-(βA)(βA))”, the “Result for incubation with human IgG-Fc” value in the experiment with human IgG-Fc was 0. Moreover, the “Result for incubation with serum albumin” value with serum albumin is 0. For the same substance, the “Result for incubation with human plasma” value in experiment [1] stood at 0.
Regarding “04K: cellulose-bound 13-mer variant DCAKHLGELVWCT-(βA)(βA) (DCAKHLGELVWCT[βAla][βAla]; disulfide 2-12 (inferred); also: cellulose-bound)”, the “Result for incubation with human IgG-Fc” value in the experiment with human IgG-Fc is reported as “+”. The “Result for incubation with serum albumin” value with serum albumin was 0. For the same substance, the “Result for incubation with human plasma” value in experiment [1] was “+”.
“05Y: cellulose-bound 13-mer variant DCAWYLGELVWCT-(βA)(βA) (DCAWYLGELVWCT[βAla][βAla]; disulfide 2-12 (inferred); not fully specified (N-terminus); printed as DCAWYLGELVWCT-(βA)(βA); also: cellulose-bound)”: the “Result for incubation with human IgG-Fc” value with human IgG-Fc is reported as 0. In addition, the “Result for incubation with serum albumin” value with serum albumin came out at 0. Moreover, the “Result for incubation with human plasma” value in experiment [1] came out at 0.
As for “05E: cellulose-bound 13-mer variant DCAWELGELVWCT-(βA)(βA) (disulfide 2-12 (inferred); not fully specified (N-terminus, C-terminus); printed as DCAWELGELVWCT-(βA)(βA); also: cellulose-bound)”, the “Result for incubation with human IgG-Fc” value in the experiment on human IgG-Fc is recorded as 0. In addition, the “Result for incubation with serum albumin” value with serum albumin was found to be 0. In experiment [1], the “Result for incubation with human plasma” value is reported as 0.
On to “10G: cellulose-bound 13-mer variant DCAWHLGELGWCT-(βA)(βA) (DCAWHLGELGWCT-{βAla-βAla-cellulose}; disulfide 2-12 (inferred); reading uncertain; also: printed as DCAWHLGELGWCT-(βA)(βA))”, for which the “Result for incubation with human IgG-Fc” value in the experiment on human IgG-Fc was found to be 0. Further, in the experiment with serum albumin, the “Result for incubation with serum albumin” value is reported as 0. For the same substance, in experiment [1], the “Result for incubation with human plasma” value was found to be 0.
Consider “05G: cellulose-bound 13-mer variant DCAWGLGELVWCT-(βA)(βA) (disulfide 2-12 (inferred); not fully specified (N-terminus, C-terminus); printed as DCAWGLGELVWCT-(βA)(βA); also: cellulose-bound)”, for which the “Result for incubation with human IgG-Fc” value in the experiment on human IgG-Fc was found to be 0. For the same substance, the “Result for incubation with serum albumin” value in the experiment with serum albumin amounted to 0. For the same substance, the “Result for incubation with human plasma” value in experiment [1] turned out to be 0.
On to “11K: cellulose-bound 13-mer variant DCAWHLGELVKCT-(βA)(βA)”, for which, in the experiment on human IgG-Fc, the “Result for incubation with human IgG-Fc” value is given as “+”. The “Result for incubation with serum albumin” value in the experiment on serum albumin is 0. Moreover, the “Result for incubation with human plasma” value in experiment [1] is 0.
On to “01I: cellulose-bound 13-mer variant ICAWHLGELVWCT-(βA)(βA) (ICAWHLGELVWCT-{βAla-βAla-cellulose}; disulfide 2-12 (inferred); reading uncertain; also: printed as ICAWHLGELVWCT-(βA)(βA))”, for which the “Result for incubation with human IgG-Fc” value in the experiment with human IgG-Fc stood at 0. Also, the “Result for incubation with serum albumin” value in the experiment on serum albumin is 0. Besides, the “Result for incubation with human plasma” value in experiment [1] is reported as 0.
